Tested on: NCI-H1876 complex spheroid viability
Experiment: Anticancer human tumor NCI-H1876 cell line growth inhibition [LSD1];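 further: spheroids exposed to compounds for one week before readout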;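 on viability, T/C: 100% = DMSO vehicle-treated spheroids so lower means fewer viable cells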
Conditions: for IC50: curve of first compound; for viability, T/C: stronger effect = lower value; active means viability on the fitted dose curve at most 10% of control; inactive means the rest
Procedure, shortened: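 Drug combinations with the LSD1 inhibitor iadademstat tested on tumor cells co-cultured as spheroids with endothelial cells and mesenchymal stem cells. Concentrations descended in half-log increments from clinical Cmax or 10 microM.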

[1] = second compound 0.1 µM, first compound 0.000316 µM
[2] = second compound 0.1 µM, first compound 0.001 µM
[3] = second compound 0.1 µM, first compound 0.00316 µM
[4] = second compound 0.1 µM, first compound 0.01 µM
[5] = second compound 0.1 µM, first compound 0.0316 µM
[6] = second compound 0.1 µM, first compound 0.1 µM
[7] = second compound 0.316 µM, first compound 0.000316 µM
[8] = second compound 0.316 µM, first compound 0.001 µM
[9] = second compound 0.316 µM, first compound 0.00316 µM
[10] = second compound 0.316 µM, first compound 0.01 µM
[11] = second compound 0.316 µM, first compound 0.0316 µM
[12] = second compound 0.316 µM, first compound 0.1 µM
[13] = second compound 1 µM, first compound 0.000316 µM
[14] = second compound 1 µM, first compound 0.001 µM
[15] = second compound 1 µM, first compound 0.00316 µM
[16] = second compound 1 µM, first compound 0.01 µM
[17] = second compound 1 µM, first compound 0.0316 µM
[18] = second compound 1 µM, first compound 0.1 µM
[19] = second compound 3.16 µM, first compound 0.000316 µM
[20] = second compound 3.16 µM, first compound 0.001 µM
[21] = second compound 3.16 µM, first compound 0.00316 µM
[22] = second compound 3.16 µM, first compound 0.01 µM
[23] = second compound 3.16 µM, first compound 0.0316 µM
[24] = second compound 3.16 µM, first compound 0.1 µM
[25] = second compound 10 µM, first compound 0.000316 µM
[26] = second compound 10 µM, first compound 0.001 µM
[27] = second compound 10 µM, first compound 0.00316 µM
[28] = second compound 10 µM, first compound 0.01 µM
[29] = second compound 10 µM, first compound 0.0316 µM
[30] = second compound 10 µM, first compound 0.1 µM

CC(C)CC(NC(=O)C(Cc1ccccc1)NC(=O)c1cnccn1)B(O)O (stereo not given) + NC1CCC(NC2CC2c2ccccc2)CC1
active: viability, T/C [20] 0.39% | viability, T/C [21] 9.3% | viability, T/C [22] 3.65% | viability, T/C [23] 0.15% | viability, T/C [24] 10.3% | viability, T/C [26] 9.39% | viability, T/C [27] 7.81% | viability, T/C [28] 7.31% | viability, T/C [29] 3.77% | viability, T/C [30] 12.5%
0.555 nM: IC50 (second compound 1 µM)
0.563 nM: IC50 (second compound 0.316 µM)
0.485 nM: IC50 (second compound 10 µM)
0.602 nM: IC50 (second compound 0.1 µM)
inactive: viability, T/C [1] 92.6% | viability, T/C [2] 16.3% | viability, T/C [3] 31.7% | viability, T/C [4] 14.5% | viability, T/C [5] 0.17% | viability, T/C [6] 3.63% | viability, T/C [7] 89.3% | viability, T/C [8] 9.55% | viability, T/C [9] 13.6% | viability, T/C [10] 17.3% | viability, T/C [11] 10.1% | viability, T/C [12] 3.61% | viability, T/C [13] 82% | viability, T/C [14] 16.4% | viability, T/C [15] 13.8% | viability, T/C [16] 13.1% | viability, T/C [17] 7.48% | viability, T/C [18] 11.4% | viability, T/C [19] 70% | viability, T/C [25] 74%
0.449 nM: IC50 (second compound 3.16 µM)

CC(C)CC(NC(=O)CNC(=O)c1cc(Cl)ccc1Cl)B1OC(=O)CC(CC(=O)O)(C(=O)O)O1 (stereo not given) + NC1CCC(NC2CC2c2ccccc2)CC1
8.75 nM: IC50 (second compound 0.316 µM)
7.93 nM: IC50 (second compound 3.16 µM)
inactive: viability, T/C [1] 94.5% | viability, T/C [2] 109% | viability, T/C [3] 104% | viability, T/C [4] 45.1% | viability, T/C [7] 98.2% | viability, T/C [8] 108% | viability, T/C [9] 104% | viability, T/C [10] 43% | viability, T/C [11] 7.91% | viability, T/C [12] 17.4% | viability, T/C [13] 99.3% | viability, T/C [14] 97.2% | viability, T/C [15] 96.2% | viability, T/C [16] 38.2% | viability, T/C [19] 105% | viability, T/C [20] 112% | viability, T/C [21] 99% | viability, T/C [22] 36.5% | viability, T/C [25] 99% | viability, T/C [26] 104% | viability, T/C [27] 93.9% | viability, T/C [28] 35.5% | viability, T/C [29] 15.6% | viability, T/C [30] 13.8%
active: viability, T/C [5] 8.77% | viability, T/C [6] 0.58% | viability, T/C [17] 9.23% | viability, T/C [18] 7.49% | viability, T/C [23] 18.1% | viability, T/C [24] 0.81%
7.52 nM: IC50 (second compound 10 µM)
7.91 nM: IC50 (second compound 1 µM)
9.07 nM: IC50 (second compound 0.1 µM)

Nc1ccccc1NC(=O)c1ccc(CNC(=O)OCc2cccnc2)cc1 + NC1CCC(NC2CC2c2ccccc2)CC1
186 nM: IC50 (second compound 0.1 µM)
179 nM: IC50 (second compound 10 µM)
177 nM: IC50 (second compound 0.316 µM)
185 nM: IC50 (second compound 1 µM)
170 nM: IC50 (second compound 3.16 µM)
active: viability, T/C (second compound 0.1 µM, first compound 0.949 µM) 4.45% | viability, T/C (second compound 0.1 µM, first compound 3 µM) 1.28% | viability, T/C (second compound 0.316 µM, first compound 0.949 µM) 3.15% | viability, T/C (second compound 0.316 µM, first compound 3 µM) 1.03% | viability, T/C (second compound 1 µM, first compound 0.949 µM) 11.6% | viability, T/C (second compound 1 µM, first compound 3 µM) 1.66% | viability, T/C (second compound 3.16 µM, first compound 0.949 µM) 2.36% | viability, T/C (second compound 3.16 µM, first compound 3 µM) 0.71% | viability, T/C (second compound 10 µM, first compound 0.949 µM) 10.6% | viability, T/C (second compound 10 µM, first compound 3 µM) 1.74%
inactive: viability, T/C (second compound 0.1 µM, first compound 0.00949 µM) 98.5% | viability, T/C (second compound 0.1 µM, first compound 0.03 µM) 109% | viability, T/C (second compound 0.1 µM, first compound 0.0949 µM) 90.6% | viability, T/C (second compound 0.1 µM, first compound 0.3 µM) 21.2% | viability, T/C (second compound 0.316 µM, first compound 0.00949 µM) 113% | viability, T/C (second compound 0.316 µM, first compound 0.03 µM) 108% | viability, T/C (second compound 0.316 µM, first compound 0.0949 µM) 78.3% | viability, T/C (second compound 0.316 µM, first compound 0.3 µM) 26.3% | viability, T/C (second compound 1 µM, first compound 0.00949 µM) 114% | viability, T/C (second compound 1 µM, first compound 0.03 µM) 115% | viability, T/C (second compound 1 µM, first compound 0.0949 µM) 86.2% | viability, T/C (second compound 1 µM, first compound 0.3 µM) 23.3% | viability, T/C (second compound 3.16 µM, first compound 0.00949 µM) 111% | viability, T/C (second compound 3.16 µM, first compound 0.03 µM) 104% | viability, T/C (second compound 3.16 µM, first compound 0.0949 µM) 80% | viability, T/C (second compound 3.16 µM, first compound 0.3 µM) 21.2% | viability, T/C (second compound 10 µM, first compound 0.00949 µM) 102% | viability, T/C (second compound 10 µM, first compound 0.03 µM) 102% | viability, T/C (second compound 10 µM, first compound 0.0949 µM) 86.5% | viability, T/C (second compound 10 µM, first compound 0.3 µM) 20.2%

O=C(c1cc(Cc2n[nH]c(=O)c3ccccc23)ccc1F)N1CCN(C(=O)C2CC2)CC1 + NC1CCC(NC2CC2c2ccccc2)CC1
6620 nM: IC50 (second compound 0.1 µM)
6130 nM: IC50 (second compound 1 µM)
5050 nM: IC50 (second compound 10 µM)
inactive: viability, T/C [5] 90.7% | viability, T/C [6] 99.4% | viability, T/C (second compound 0.1 µM, first compound 0.316 µM) 89.4% | viability, T/C (second compound 0.1 µM, first compound 1 µM) 94.8% | viability, T/C (second compound 0.1 µM, first compound 3.16 µM) 76.2% | viability, T/C (second compound 0.1 µM, first compound 10 µM) 35.4% | viability, T/C [11] 99.2% | viability, T/C [12] 93% | viability, T/C (second compound 0.316 µM, first compound 0.316 µM) 89.4% | viability, T/C (second compound 0.316 µM, first compound 1 µM) 87.2% | viability, T/C (second compound 0.316 µM, first compound 3.16 µM) 69.5% | viability, T/C (second compound 0.316 µM, first compound 10 µM) 35.5% | viability, T/C [17] 90.2% | viability, T/C [18] 93% | viability, T/C (second compound 1 µM, first compound 0.316 µM) 91.5% | viability, T/C (second compound 1 µM, first compound 1 µM) 79.7% | viability, T/C (second compound 1 µM, first compound 3.16 µM) 70.5% | viability, T/C (second compound 1 µM, first compound 10 µM) 35.8% | viability, T/C [23] 90.7% | viability, T/C [24] 95.4% | viability, T/C (second compound 3.16 µM, first compound 0.316 µM) 86.7% | viability, T/C (second compound 3.16 µM, first compound 1 µM) 86.7% | viability, T/C (second compound 3.16 µM, first compound 3.16 µM) 64.5% | viability, T/C (second compound 3.16 µM, first compound 10 µM) 32.7% | viability, T/C [29] 95.7% | viability, T/C [30] 90.6% | viability, T/C (second compound 10 µM, first compound 0.316 µM) 85.9% | viability, T/C (second compound 10 µM, first compound 1 µM) 79.8% | viability, T/C (second compound 10 µM, first compound 3.16 µM) 64.6% | viability, T/C (second compound 10 µM, first compound 10 µM) 29.9%
5370 nM: IC50 (second compound 3.16 µM)
6160 nM: IC50 (second compound 0.316 µM)
